Laboratory results as given in PMC6695355, “Alanine Scanning Studies of the Antimicrobial Peptide Aurein 1.2” (Probiotics and Antimicrobial Proteins, 2018).
In brackets after ≈: the same amount, converted by molar mass. Where a SMILES comes first, the peptide text is derived from it.

What was measured:
[1] = test system: E. coli ATCC 25922; type: cell-based, Escherichia coli; conditions: ATCC 25922, 18 h
Description: (§1) The minimum inhibitory concentrations (MICs) of test compounds were assessed by broth microdilution method on 96-well plates, according to the guidelines of Clinical and Laboratory Standards Institute (CLSI). For this purpose, reference strains of bacteria: S. aureus ATCC 25923, E. faecalis PCM 2673, E. coli ATCC 25922, and P. aeruginosa ATCC 9027; and fungus: C. albicans ATCC 10231 were used (The Polish Collection of Microorganism, Polish Academy of Sciences, Wrocław, Poland). Bacteria at initial inoculums of 0.5 × 10^5 CFU/mL in Mueller Hinton Broth (MHB), and fungi at initial inoculums of 2 × 10^3 CFU/mL in RPMI-1640, were exposed to the compounds over the concentration range of 1–512 μg/mL. The polystyrene plates were incubated at 37 °C for 18 h with bacteria and for 24 h with C. albicans. The MIC was taken as the lowest concentration at which a noticeable growth of microorganisms was inhibited. Minimum biofilm eradication concentrations (MBECs) were determined using a previously described protocol. For this purpose, 96-well polystyrene flat-bottom plates and a resazurin (7-hydroxy-3H-phenoxazin-3-one 10-oxide) were used. In this assay, a specific feature of resazurin is utilized, which upon the contact with living cells is metabolized and reduced from the basic blue form to pink resorufin. Briefly, 24-h cultures of microorganisms were diluted 1,000-fold and 100 μL of that suspension was added into the test plates. After 24 h of incubation at 37 °C, the wells of the plates were rinsed three times with phosphate buffer saline (PBS) to remove non-adherent cells. Subsequently, 100 μL of test compounds in concentration range (diluted in appropriate media) were added to each well. After 24 h of incubation at 37 °C, 20 μL of the resazurin (4 mg/mL) was added. The MBEC was read after 1 h. Additionally, anti-adhesive properties of the compounds were also analyzed. The assay was conducted on 96-well polystyrene flat-bottom plates. The preparation of inoculums was followed by a 500-fold dilution of 24-h cultures of microorganisms. Briefly, to evaluate the effect of the peptides in preventing biofilm formation, 50 μL of compounds in concentration range, diluted in appropriate medium, were prepared. Subsequently, the 50 μL of the bacterial/fungal inoculums were added to reach the same microbial density as that in MBEC assay. After 24 h of incubation at 37 °C, the wells were rinsed three times with PBS and the fresh media with resazurin (0.6 mg/mL) were added. Then, after 1 h of incubation, the minimum biofilm inhibitory concentrations (MBIC) were read. MBECs as well as MBICs were determined as the lowest concentration at which the reduction of resazurin was lower or equal (10% ± 0.5%) as compared to positive (100%) and negative (0%) controls. All experiments were performed in triplicate.

[2] = test system: E. coli ATCC 25922 biofilm formation; type: cell-based, Escherichia coli; conditions: ATCC 25922, 24 h
Description: as §1

[3] = test system: E. coli ATCC 25922 biofilm; type: cell-based, Escherichia coli; conditions: ATCC 25922, 24 h
Description: as §1

[4] = test system: E. faecalis PCM 2673 biofilm formation; type: cell-based, Enterococcus faecalis; conditions: 24 h
Description: as §1

[5] = test system: E. faecalis PCM 2673; type: cell-based, Enterococcus faecalis; conditions: PCM 2673, 18 h
Description: as §1

[6] = test system: E. faecalis PCM 2673 biofilm; type: cell-based, Enterococcus faecalis; conditions: 24 h
Description: as §1

[7] = in vitro; type: in vitro ADME; conditions: bovine, serum
Description: To assess serum stability, the peptides (0.5 mg) were dissolved in 4 mL of 25% (v/v) fetal bovine serum (FBS) in PBS and incubated at 37 °C. The aliquots of 100 μL of the test samples were transferred to 96-well polystyrene plates in triplicate for each time point. Samples were quenched at zero time (t0) and after 6 h of incubation at 37 °C by addition of 100 μL of ice-cold acetonitrile and stored at 4 °C for 10 min. Afterwards, the samples were centrifuged at 13,000×g for 20 min at 4 °C and diluted 1:1 with HPLC-grade water. All samples were analyzed using the Waters Alliance e2695 system with Waters Acquity QDa Detector (software–Empower®3). Analyses were conducted on an Agilent Zorbax SB-C18 RP-18 column (4.6 × 50 mm, 1.8-μm particle size, 80-Å pore size) using a linear 30–60% acetonitrile (B) gradient in deionized water (A) over 6 min at 25.0 ± 0.1 °C, at a flow rate of 0.5 mL/min and MS working in selected ion recording (SIR) mode (A—0.1% aqueous formic acid (FA) and B—0.1% FA in acetonitrile). The percentage of peptide remaining intact was calculated from peak areas of samples at t0 and after 6 h of incubation in serum (the % of remaining peptide = peak area after 6 h/peak area at t0). The mass-to-charge ratios selected for SIR mode were based on values obtained from full spectrum analysis of each peptide and are presented in Table 1.

[8] = test system: P. aeruginosa ATCC 9027 biofilm formation; type: cell-based, Pseudomonas aeruginosa; conditions: ATCC 9027, 24 h
Description: as §1

[9] = test system: P. aeruginosa ATCC 9027; type: cell-based, Pseudomonas aeruginosa; conditions: ATCC 9027, 18 h
Description: as §1

[10] = test system: P. aeruginosa ATCC 9027 biofilm; type: cell-based, Pseudomonas aeruginosa; conditions: ATCC 9027, 24 h
Description: as §1

[11] = test system: C. albicans ATCC 10231 biofilm formation; type: cell-based, Candida albicans; conditions: ATCC 10231, 24 h
Description: as §1

[12] = test system: C. albicans ATCC 10231; type: cell-based, Candida albicans; conditions: ATCC 10231, 24 h
Description: as §1

[13] = test system: C. albicans ATCC 10231 biofilm; type: cell-based, Candida albicans; conditions: ATCC 10231, 24 h
Description: as §1

[14] = test system: human red blood cells (RBCs); assay: Hemolysis assay; type: cell-based; conditions: red cells of human, 1 h
Description: The hemolytic activity of the peptides was determined using fresh human red blood cells (RBCs) collected from a healthy human donor according to the procedure described in the literature. Fresh RBCs with EDTA as anticoagulant were rinsed three times with a PBS by centrifugation at 800×g for 10 min and resuspension in PBS. Serial dilution of the peptides in PBS (1–256 μg/mL) on 96-well polystyrene plates was prepared and the stock solution of RBCs was added up to a final volume of 100 μL with a 4% concentration of erythrocytes (v/v). The control wells for 0 and 100% hemolysis contained of RBCs suspended in PBS and 1% of Triton-X 100, respectively. Subsequently, the plates were incubated for 1 h at 37 °C and then centrifuged at 800×g for 10 min at 4 °C (Sorvall ST 16R Centrifuge, Thermo Scientific). After centrifugation, the supernatant was carefully […] to new microtiter plates and the release of hemoglobin was measured at 540 nm (Multiskan™ GO Microplate Spectrophotometer, Thermo Scientific). All experiments were conducted in triplicate.

[15] = test system: S. aureus ATCC 25923 biofilm; type: cell-based, Staphylococcus aureus; conditions: ATCC 25923, 24 h
Description: as §1

[16] = test system: S. aureus ATCC 25923 biofilm formation; type: cell-based, Staphylococcus aureus; conditions: ATCC 25923, 24 h
Description: as §1

[17] = test system: S. aureus ATCC 25923; type: cell-based, Staphylococcus aureus; conditions: ATCC 25923, 18 h
Description: as §1

MIC, E. coli ATCC 25922 [1]: 128 µg/mL (≈ 91.2 µM)
MIC, E. faecalis PCM 2673 [5]: 256 µg/mL (≈ 182 µM)
remaining at 6 h, 0.125 mg/mL [7]: 38%
MIC, P. aeruginosa ATCC 9027 [9]: 512 µg/mL (≈ 365 µM)
MIC, C. albicans ATCC 10231 [12]: 128 µg/mL (≈ 91.2 µM)
MIC, S. aureus ATCC 25923 [17]: 512 µg/mL (≈ 365 µM)
Compound: CC[C@H](C)[C@H](NC(=O)[C@H](CCCCN)NC(=O)[C@H](CCCCN)NC(=O)[C@@H](NC(=O)[C@@H](NC(=O)[C@H](CC(=O)O)NC(=O)[C@H](C)NC(=O)[C@H](CC(C)C)NC(=O)CN)[C@@H](C)CC)[C@@H](C)CC)C(=O)N[C@@H](C)C(=O)N[C@@H](CCC(=O)O)C(=O)N[C@@H](CO)C(=O)N[C@@H](Cc1ccccc1)C(N)=O [Peptide F3A] (H-GLADIIKKIAESF-NH2)
MBIC, E. coli ATCC 25922 [2]: 256 µg/mL
MBEC, E. coli ATCC 25922 [3]: 256 µg/mL
MBIC, E. faecalis PCM 2673 [4]: 256 µg/mL
MBEC, E. faecalis PCM 2673 [6]: > 512 µg/mL
MBIC, P. aeruginosa ATCC 9027 [8]: 512 µg/mL
MBEC, P. aeruginosa ATCC 9027 [10]: > 512 µg/mL
MBIC, C. albicans ATCC 10231 [11]: 4 µg/mL
MBEC, C. albicans ATCC 10231 [13]: > 512 µg/mL
Percentage of hemolysis at 1 μg/mL [14]; 1: 0.1%
Percentage of hemolysis at 2 μg/mL [14]; 2: 0.1%
Percentage of hemolysis at 4 μg/mL [14]; 4: 0.0%
Percentage of hemolysis at 8 μg/mL [14]; 8: 0.0%
Percentage of hemolysis at 16 μg/mL [14]; 16: 0.0%
Percentage of hemolysis at 32 μg/mL [14]; 32: 0.0%
Percentage of hemolysis at 64 μg/mL [14]; 64: 0.0%
Percentage of hemolysis at 128 μg/mL [14]; 128: 0.0%
Percentage of hemolysis at 256 μg/mL [14]; 256: 0.3%
MBEC, S. aureus ATCC 25923 [15]: > 512 µg/mL
MBIC, S. aureus ATCC 25923 [16]: >512 µg/mL
